For one experiment, the system named is OVCAR8 cells. Description: In vitro phagocytosis assay of OVCAR8 cells by PBMC-derived M2 macrophages. In kind it is cell-based, human. The note with it: bestatin 20 μM; for macrophage-mediated phagocytosis: OVCAR8, tosedostat 20 μM, ARM1 2 μM, vs DMSO; for phagocytosis of OVCAR8 cells: tosedostat 10 μM vs DMSO, anti-CD24 antibody (clone SN3) vs IgG (FIG. 9C). An excerpt: Macrophage Generation and Stimulation: Primary human donor-derived macrophages were generated as described previously (Martinez, Curr Protocol Immunol 2012, Chapter 14:14.28.1-14.28.23). In brief, Leukopaks from anonymous donors were obtained from the Rhode Island Blood (Providence, RI) and peripheral blood […] (PBMCs) were isolated by density gradients centrifugation using Ficoll Paque Plus (Sigma-Aldrich, Cat #17-1440-02) followed by RBC lysis using RBC lysis buffer (eBioscience, Cat #00-4333-57). For monocyte isolation, PBMCs were incubated in Monocyte Attachment Medium (Sigma-Aldrich, Cat #C-28051) for 1 hour at 37° C. and 5% CO2 and then washed three times in Iscove's Modified Dulbecco's Medium (IMDM) (Gibco, Cat #12440053) to remove non-adherent cells. The remaining monocytes were detached and seeded in 96-well plates and cultured at 37° C. and 5% CO2 in IMDM supplemented with 10% FBS (Atlanta Biologicals, Cat #S11550) and 20 ng/ml recombinant human M-CSF (Peprotech, Cat #AF-300-25). After 4 days monocytes were then treated with 20 ng/ml recombinant human IL-4 (Peprotech, Cat #200-04) and 10 ng/mL recombinant human IL-10 (PeproTech, Cat #200-10) for another 3-4 days to obtain M2 polarized macrophages. Macrophage differentiation was confirmed morphologically using microscopy. M2-macrophage polarization was confirmed by immunophenotyping of the M2 marker CD206 using PE-conjugated anti-human anti-CD206 antibody (BioLegend, Cat #321106, clone 15-2, 1:100 dilution). In vitro Phagocytosis Assays: To facilitate the quantification of phagocytic events, we adapted a microscopy-based fluorescence phagocytosis […] al., J Immunol Methods 2009, 342(1-2):71-7; Lindner et al., Biotechniques 2020, 68(5):245-250) for use with a Celigo imaging cytometer. […] Cells were incubated with pHrodo Red, SE (Invitrogen, Cat #P36600) on ice for 30 min and then co-cultured with PBMC-derived M2 macrophages (prepared as described above) at a ratio of 1:2 (OVCAR8/B cells: macrophages) for 2 hours in a humidified 5% CO2 incubator at 37° C. Phagocytic events were quantified by counting the number of red fluorescent (pHrodo+) cells per well using a Celigo Imaging Cytometer (Nexcelom). EmGFP was used for the visualization of cancer cells in imaging Phagocytic events were also quantified using a previously-described flow cytometry-based assay (Barkal et al., Nature 2019, 572(7769):392-396; […] et al., Biomedicines 2022, 10(5):1175). In brief, M2 macrophages co-cultured with OVCAR8/EmGFP-luc cells were detached using TrypLE Express (GibcoTM, cat #12604013), stained with APC anti-human CD11b clone ICRF44 (BioLegend, Cat #982604) and analyzed by flow cytometry (BioRad ZE5). Double-positive EmGFP+CD11b+ cells were considered phagocytic events.

The next experiment relates to normal B cells. As to the kind of experiment: In vitro phagocytosis assay of normal B cells by PBMC-derived M2 macrophages. The format is cell-based, human. The following applies: for phagocytosis of B cells: bestatin 20 μM, tosedostat 10 μM vs DMSO, anti-CD24 antibody (clone SN3) vs IgG (FIG. 9B); for selectivity, CD24+ ovarian cancer cells relative to normal CD24+ B cells: comparison of FIG. 9B and 9C. An excerpt: Macrophage Generation and Stimulation: Primary human donor-derived macrophages were generated as described previously (Martinez, Curr Protocol Immunol 2012, Chapter 14:14.28.1-14.28.23). In brief, Leukopaks from anonymous donors were obtained from the Rhode Island Blood (Providence, RI) and peripheral blood […] (PBMCs) were isolated by density gradients centrifugation using Ficoll Paque Plus (Sigma-Aldrich, Cat #17-1440-02) followed by RBC lysis using RBC lysis buffer (eBioscience, Cat #00-4333-57). For monocyte isolation, PBMCs were incubated in Monocyte Attachment Medium (Sigma-Aldrich, Cat #C-28051) for 1 hour at 37° C. and 5% CO2 and then washed three times in Iscove's Modified Dulbecco's Medium (IMDM) (Gibco, Cat #12440053) to remove non-adherent cells. The remaining monocytes were detached and seeded in 96-well plates and cultured at 37° C. and 5% CO2 in IMDM supplemented with 10% FBS (Atlanta Biologicals, Cat #S11550) and 20 ng/ml recombinant human M-CSF (Peprotech, Cat #AF-300-25). After 4 days monocytes were then treated with 20 ng/ml recombinant human IL-4 (Peprotech, Cat #200-04) and 10 ng/mL recombinant human IL-10 (PeproTech, Cat #200-10) for another 3-4 days to obtain M2 polarized macrophages. Macrophage differentiation was confirmed morphologically using microscopy. M2-macrophage polarization was confirmed by immunophenotyping of the M2 marker CD206 using PE-conjugated anti-human anti-CD206 antibody (BioLegend, Cat #321106, clone 15-2, 1:100 dilution). Primary B-cell Isolation and Culture: Pan B cells were isolated by negative selection from PBMCs isolated from Leukopaks (as described above) using a MojoSort Human Pan B Cell Isolation Kit (BioLegend, Cat #480081) according to the manufacturer's instructions. The purity of B cells was confirmed to be >95% by flow cytometry using a FITC anti-human CD19 antibody (BioLegend, Cat #302205, clone HIB19). B cells were cultured in RPMI 1640 medium supplemented with 5% human serum (Sigma-Aldrich, Cat #H6914), MEM non-essential amino acids solution (Gibco, Cat #1140050), and recombinant human IL-2 (50 ng/ml) (PeproTech, Cat #200-02) and IL-4 (10 ng/ml) (PeproTech, Cat #200-04). In vitro Phagocytosis Assays: To facilitate the quantification of phagocytic events, we adapted a microscopy-based fluorescence phagocytosis […] al., J Immunol Methods 2009, 342(1-2):71-7; Lindner et al., Biotechniques 2020, 68(5):245-250) for use with a Celigo imaging cytometer. […] Phagocytic events were quantified by counting the number of red fluorescent (pHrodo+) cells per well using a Celigo Imaging Cytometer (Nexcelom). […]

Structures are written as SMILES.

Consider `CC(C)C[C@H](NC(=O)[C@@H](O)[C@H](N)Cc1ccccc1)C(=O)O` [bestatin], for which, in the experiment on OVCAR8 cells, the macrophage-mediated phagocytosis result was “substantially increased” and the “phagocytosis of OVCAR8 cells” value is recorded as “susceptible”. In addition, in the experiment on normal B cells, the “phagocytosis of B cells” value is “did not undergo phagocytosis” and the “selectivity, CD24+ ovarian cancer cells relative to normal CD24+ B cells” value is given as “selectivity toward CD24+ ovarian cancer cells relative to normal CD24+ B cells”.

As for `CC(C)C[C@@H](C(=O)N[C@H](C(=O)OC1CCCC1)c1ccccc1)[C@H](O)C(=O)NO` [tosedostat], in the experiment with OVCAR8 cells, the macrophage-mediated phagocytosis entry is “increased” and the “phagocytosis of OVCAR8 cells” value was “susceptible”. Besides, in the experiment on normal B cells, the “phagocytosis of B cells” value is listed as “did not undergo phagocytosis” and the “selectivity, CD24+ ovarian cancer cells relative to normal CD24+ B cells” value was “selectivity toward CD24+ ovarian cancer cells relative to normal CD24+ B cells”.

The values are drawn from US20260209777A1, “TARGETING GLYCOSYLPHOSPHATIDYLINOSITOL (GPI) PATHWAY PROTEINS TO TREAT OVARIAN CANCER” (UNIVERSITY OF MASSACHUSETTS, priority 2023, published 2026).
